From patent publication US12017995B2, “Crystalline forms and salt forms of a kinase inhibitor” (Exelixis, Inc., priority 2018, dated 2024)
Entries after “also recorded” stand apart in the source; their conditions may differ. Where two headings read alike, the source gives them in different places.

Tests used:
Format in all cases: physicochemical
[1] = Dynamic vapor sorption (DVS); settings: for crystalline form of post-DVS sample by XRPD: after sorption/desorption; for water vapor uptake / weight gain by DVS: from 5% to 95% RH
Procedure: Dynamic Vapor Sorption (DVS)
a. VTI: Automated vapor sorption (VS) data were collected on a VTI SGA-100 Vapor Sorption Analyzer. NaCl and PVP were used as calibration standards. Samples were dried prior to analysis. Sorption and desorption data were collected over a range from 5% to 95% RH at 10% RH increments under a nitrogen purge. The equilibrium criterion used for analysis was less than 0.0100% weight change in 5 minutes with a maximum equilibration time of 3 hours. Data were not corrected for the initial moisture content of the samples.
b. Intrinsic: Automated vapor sorption (VS) data were collected on a Surface Measurement System DVS Intrinsic instrument. Samples were not dried prior to analysis. Sorption and desorption data were collected over a range from 5% to 95% RH at 10% RH increments under a nitrogen purge. The equilibrium criterion used for analysis was less than 0.0100% weight change in 5 minutes with a maximum equilibration time of 3 hours. Data were not corrected for the initial moisture content of the samples.

[2] = pKa and log P determination (Pion Inc./Sirius Analytical Instruments Ltd.)
Procedure: pKa and log P Determination: pKa and log P determination were performed by Pion Inc./Sirius Analytical Instruments Ltd. in East Sussex, United Kingdom.

[3] = Disproportionation check: water slurry at ambient conditions and repeated acetone wash, XRPD of recovered material
Procedure: (§1) The physical stability of Hemifumarate Form B was investigated. Compound 1 Hemifumarate Form B was slurried in water at ambient conditions for approximately 24 hours. In a separate experiment, the material was repeatedly washed with acetone.
Solids were then collected by vacuum filtration and analyzed by XRPD.

[4] = Stability testing in open vials, 75% RH chamber at 40° C., analysed by PLM and XRPD; settings: 15 days / approximately 2 weeks, XRPD
Procedure: as §1
Stability Testing: Various Compound 1 salts were placed in open vials within a 75% RH chamber (saturated sodium chloride solution). The RH chamber was placed in a 40° C. oven for 15-16 days. Samples were analyzed by PLM and XRPD upon the end of the duration.

SMILES | hygroscopicity by DVS (class) ([1]; 5% to 95% RH) | crystalline form of post-DVS sample by XRPD [1] | water vapor uptake / weight gain by DVS [1] | pKa [2] | logP ([2]; read-out: cationic log P) | logP ([2]; read-out: neutral log P) | disproportionation of the salt in acetone ([3]; repeatedly washed with acetone) | disproportionation of the salt in water ([3]; slurried in water at ambient conditions for approximately 24 hours) | hygroscopicity by DVS ([1]; DVS isotherm) | weight gain/loss through the DVS sorption/desorption experiment ([1]; sorption/desorption 5% to 95% RH, without hysteresis) | physical stability at 40° C. and 75% RH [4]
CNC(=O)c1cc2c(Oc3ccc(NC(=O)C4(C(=O)Nc5ccc(F)cc5)CC4)cc3)ccnc2cc1OC [Compound 1 Form A, 1-N′-(4-Fluorophenyl)-1-N-[4-[7-methoxy-6-(methylcarbamoyl)quinolin-4-yl]oxyphenyl]cyclopropane-1,1-dicarboxamide] | Limited | no change in crystalline form | ~0.91 wt % | 5.43 ± 0.4 | 1.79 ± 0.8 | 4.5 ± 0.5 |  |  |  |  | 
CNC(=O)c1cc2c(Oc3ccc(NC(=O)C4(C(=O)Nc5ccc(F)cc5)CC4)cc3)ccnc2cc1OC [Compound 1 Hemifumarate Form B] |  | remained unchanged | about 0.2 wt % |  |  |  | disproportionation was not evident; also recorded: did not cause disproportionation | disproportionation was not evident; also recorded: did not cause disproportionation | not hygroscopic | less than 0.2% | physically stable; also recorded: did not change by XRPD
